Test results published in US11771703B2, “Targeted epigenetic therapy against distal regulatory element of TGFβ2 expression” (The Johns Hopkins University, priority 2017, dated 2023).
“Also recorded” adds a separate entry of the source. Numbered stars: 1 amine (or outer) side, 2 acyl side, 3 side chain; on linkers, the order of the positions; unused ones are H or OH. Bridge positions count the residues as written; N and C are the ends. Square brackets hold non-standard residues; d marks the D form. Peptide text beside a SMILES is read from it. I, II: the chains in the order shown. Actinocin(9to1) = Cc1c2oc3c(C)ccc(C(=O)[*:1])c3nc-2c(C(=O)[*:2])c(N)c1=O; NMeV = CN[C@H](C(=O)O)C(C)C; Sar = CNCC(=O)O

Legend:
SSc fibroblasts = assay: RNA-seq transcriptome of vehicle or JQ1-treated control or SSc fibroblasts; assay type: cell-based, human
Description: The negative enantiomer of JQ1 was used as a negative control. […] In FIGS. 4G and 4H, BRD4 inhibition with JQ1 normalizes TGFβ2 protein and collagen mRNA expression in SSc fibroblasts. In FIGS. 4I, 4J and 4K, JQ1 treatment normalizes chromatin accessibility, H3K27ac and BRD4 occupancy at the TGFB2 enhancer in SSc fibroblasts. […] FIG. 4M: Heatmap of unsupervised hierarchical clustering of differentially expressed genes between vehicle or JQ1-treated control or SSc fibroblasts by RNA-seq (N=2). Rows represent differentially expressed genes between vehicle-treated control and SSc fibroblasts (FDR<0.05). Differences in expression of these genes are mitigated in SSc fibroblasts upon JQ1 treatment. […] Blue and red bars represent control and SSc fibroblasts, respectively. Ncontrol=5 and NSSc=6. Lower and upper margins of each bar indicate 25th and 75th percentiles, respectively; the internal line indicates the mean and whiskers indicate the range. Black points represent individual samples. All mRNA levels were normalized to GAPDH mRNA levels, respectively. […]
To test this hypothesis, it was first validated whether primary dermal SSc fibroblast lines established from dermal biopsies maintained stable gene expression differences at baseline. […] TGFβ expression, the dominant pro-fibrotic cytokine, was also assessed. […]

[1] = test system: collagen expression in SSc fibroblasts; assay: Collagen / fibrotic synthetic repertoire (FSR) expression in SSc fibroblasts, RT-qPCR; assay type: cell-based, human
Procedure: (§1) To test this hypothesis, it was first validated whether primary dermal SSc fibroblast lines established from dermal biopsies maintained stable gene expression differences at baseline. Six dermal fibroblasts lines from SSc patients and five dermal fibroblast lines from healthy controls were cultured in serum-deprived conditions (DMEM+1% FCS) for 48 hours, followed by mRNA isolation. RNAseq analysis indicated significant transcriptomic differences (FDR<0.05) with heightened expression of extracellular matrix genes (P<1E-9) in SSc fibroblasts (FIG. 1A). By RT-qPCR, elevated expression of pro-fibrotic genes, such as COL1A1 and SERPINH1 (FIG. 1B), were independently validated. TGFβ expression, the dominant pro-fibrotic cytokine, was also assessed. […] This indicated transcriptional upregulation of TGFβ2 in SSc fibroblasts.
This provided evidence that autocrine TGFβ2 signaling drives high collagen expression in SSc. To test this, the activity of ALK5, a TGFβ receptor kinase required by all TGFβ isoforms, was inhibited. ALK5 inhibition normalized collagen expression in SSc fibroblasts (FIG. 1E, P<0.05).

[2] = test system: TGFB2 enhancer (Enhancer 4514); assay: ChIP-qPCR occupancy (P300, BRD4, H3K27ac) at the TGFB2 enhancer; assay type: cell-based, human
Description: (§2) The negative enantiomer of JQ1 was used as a negative control. […] In FIGS. 4G and 4H, BRD4 inhibition with JQ1 normalizes TGFβ2 protein and collagen mRNA expression in SSc fibroblasts. In FIGS. 4I, 4J and 4K, JQ1 treatment normalizes chromatin accessibility, H3K27ac and BRD4 occupancy at the TGFB2 enhancer in SSc fibroblasts. […] FIG. 4M: Heatmap of unsupervised hierarchical clustering of differentially expressed genes between vehicle or JQ1-treated control or SSc fibroblasts by RNA-seq (N=2). Rows represent differentially expressed genes between vehicle-treated control and SSc fibroblasts (FDR<0.05). Differences in expression of these genes are mitigated in SSc fibroblasts upon JQ1 treatment. […] Blue and red bars represent control and SSc fibroblasts, respectively. Ncontrol=5 and NSSc=6. Lower and upper margins of each bar indicate 25th and 75th percentiles, respectively; the internal line indicates the mean and whiskers indicate the range. Black points represent individual samples. All mRNA levels were normalized to GAPDH mRNA levels, respectively. All experiments other than RNA-seq and ATAC-qPCR were repeated at least twice with similar results.
Detecting activation status of TGFβ2 enhancer: To determine the activation status of the enhancer for TGFβ2 expression, chromatin immunoprecipitation was performed, followed by quantitative PCR (CHIP-qPCR), using primers that were uniquely designed based on ATAC-seq data for primary fibroblasts and published ENCODE data. The current method of detecting the activation status of TGFβ2 enhancer was implemented on primary human fibroblast cell lines established from dermal biopsies of normal controls or Scleroderma patients. However, the current method is applicable to adherent or non-adherent cells from tissue or blood of subjects (e.g., human patients).
To determine if Enhancer 4514 was biologically functional, a three-pronged approach was taken. First, active and functional enhancers are strongly associated with H3K27ac histone modifications with heightened occupancy of P300 (histone acetyltransferase) (Cato E et al. (2013) Cell Molecular Cell Reviews. 49:825-837). Thus, chromatin immunoprecipitation was used followed by qPCR (ChIP-qPCR) to determine the level of H3K27ac and P300 at Enhancer 4514 in SSc and control fibroblasts under baseline serum-deprived conditions. […] Furthermore, moderately higher levels of phosphorylated SMAD2 occupancy was found at enhancer 4514 in SSc.

TGFB2 enhancer = conditions: Chem-seq database GSE44098, GSE43743; cited from earlier work
[3] = test system: TGFB2 enhancer (Enhancer 4514); assay: Chromatin accessibility at the TGFB2 enhancer (ATAC); assay type: cell-based, human; conditions: SSc fibroblasts under treatment
Description: as §2
To test this hypothesis, an RNA-seq and Assay for Transposase-Accessible Chromatin Sequencing (ATAC-seq) were performed on three primary control fibroblast lines and three primary SSc fibroblast lines^7. […]

[4] = test system: TGFβ2 mRNA expression in SSc fibroblasts; assay: TGFβ2 mRNA expression in primary dermal control and SSc fibroblasts, RT-qPCR; assay type: cell-based, human; conditions: for TGFβ2 mRNA expression in SSc fibroblasts after drug removal: 72 hours treatment, then drug removal; for TGFβ2 mRNA expression in SSc fibroblasts under treatment: SSc fibroblasts vs controls, serum-deprived, SGC-CBP30 72 hours, actinomycin D 12 hours; for TGFβ2 mRNA expression upon stimulation with cytokine/ligand: exogenous stimulation of fibroblasts
Procedure: as §1
Since heightened TGFβ2 signaling drives collagen expression in SSc cells, the possible mechanisms of heightened TGFβ2 ligand expression in SSc fibroblasts, was investigated. First, it was determined if SSc fibroblasts were actively transcribing TGFβ2 mRNA by treating SSc or control fibroblasts with the transcriptional inhibitor actinomycin D for 12 hours, followed by mRNA isolation and RT-qPCR.
Second, it was determined if autocrine TGFβ2 signaling drives the steady-state differences in TGFβ2 mRNA expression in SSc fibroblasts. Cells were treated with isotype control or αTGFβ2ab in the presence or absence of saturating levels of exogenous TGFβ2 ligand (10 ng/mL), followed by mRNA isolation and RT-qPCR.
Third, pharmacological acetyltransferase inhibitors were used to support the role of enhancers in TGFβ2 expression and to identify therapeutic strategies for SSc. Bromodomain inhibitor SGC-CBP30 specifically suppresses the acetyltransferase activity of P300. […] This indicated some form of epigenetic memory that re-activates the TGFβ2 enhancer in SSc fibroblasts.

TGFβ2 protein = TGFβ2 protein expression in SSc fibroblasts (western blot); assay type: cell-based, human
Procedure: FIG. 1A is a heatmap. Primary control and SSc fibroblasts were cultured ex vivo under serum deprived conditions (DMEM+1% FCS). Unsupervised hierarchical clustering was performed on genes with significant mRNA expression differences (FDR<0.05) assessed by RNA-seq on primary control and SSc fibroblasts. Top ranked GO term result for each gene cluster is indicated on the left of the heatmap. FIG. 1B are plots showing mRNA transcript levels measured by RT-qPCR. FIG. 1C: Transcript differences were correlated with protein expression by western blot under same culture conditions. FIG. 1D: Effects of TGFβ2 ligand stimulation on collagen expression was assessed in SSc fibroblasts. FIG. 1E: Effects of autocrine TGFβ2 signaling on mRNA expression of collagen was assessed through treatment of control and SSc fibroblasts with anti-TGFβ2 neutralizing antibody, followed by RT-qPCR. FIG. 1F: Effects of autocrine TGFβ2 stimulation on mRNA expression of TGFβ2 was assessed through treatment of control and SSc fibroblasts with combinations of anti-TGFBβ2 neutralizing antibody and exogenous TGFβ2 ligand ([…]). […]

Scleroderma cells = assay: Cell toxicity of CBP/P300 inhibitor treatment
TGFβ3 mRNA expression = TGFβ3 mRNA expression in fibroblasts, RT-qPCR; assay type: cell-based, human; conditions: fibroblasts under treatment
TGFβ1 mRNA expression = TGFβ1 mRNA expression in fibroblasts, RT-qPCR; assay type: cell-based, human; conditions: fibroblasts under treatment
[5] = SSc fibroblasts under treatment
[6] = SSc fibroblasts, 72 hours treatment then removal

Cc1sc2c(c1C)C(c1ccc(Cl)cc1)=N[C@@H](CC(=O)OC(C)(C)C)c1nnc(C)n1-2 [JQ1]
transcriptomic differences between control and SSc fibroblasts (RNA-seq) (SSc fibroblasts; N=2): significantly mitigated transcriptomic differences
clustering in principal component analysis of RNA-seq (SSc fibroblasts; PC1, 67% of total variance): cluster together with control samples in PC1; also recorded: cluster with control fibroblasts
fibrotic synthetic repertoire (FSR) in SSc cells ([1]; e.g. COL1A1, SERPINH1): normalization
collagen expression in SSc fibroblasts ([1]; mRNA, RT-qPCR): rapidly normalized; also recorded: normalizes
BRD4 occupancy at the TGFB2 enhancer [2, 5]: complete normalization; also recorded: normalizes
H3K27ac at the TGFB2 enhancer [2, 5]: complete normalization; also recorded: normalizes
BRD4 occupancy at the TGFB2 enhancer after drug removal [2, 6]: continued normalization; also recorded: sustained normalization
H3K27ac at the TGFB2 enhancer after drug removal [2, 6]: continued normalization; also recorded: sustained normalization
P300 occupancy at the TGFB2 enhancer after drug removal [2, 6]: continued normalization; also recorded: sustained normalization
binding at the TGFB2 enhancer (Chem-seq) (TGFB2 enhancer): specifically bound to the TGFB2 enhancer; also recorded: specific binding
chromatin accessibility at the TGFB2 enhancer [3]: complete normalization; also recorded: normalizes
TGFβ2 mRNA expression in SSc fibroblasts after drug removal [4]: sustained repression; also recorded: sustained suppression; also recorded: maintained even after drug removal
TGFβ2 mRNA expression in SSc fibroblasts under treatment [4]: rapidly normalized; also recorded: decreased
TGFβ2 mRNA induction by exogenous TGFβ2 ligand under co-treatment ([4]; co-stimulation with TGFβ2 ligand (10 ng/mL)): failed to induce TGFβ2 mRNA expression
TGFβ2 mRNA expression in SSc fibroblasts after a single 48 hr regiment ([4]; single 48 hr regiment): permanently normalizes
TGFβ2 protein levels in SSc fibroblasts (TGFβ2 protein): rapidly normalized; also recorded: normalizes

CC(C)(C)c1ccc(S(=O)(=O)/C=C/C#N)cc1 [BAY 11-7085]
TGFβ2 mRNA expression in SSc fibroblasts after drug removal [4]: sustained normalization
TGFβ2 mRNA expression in SSc fibroblasts after drug removal ([4]; listed as BAY 11-70585): sustained repression
TGFβ2 mRNA expression in SSc fibroblasts under treatment [4]: robustly suppressed
TNFα-induced TGFB2 mRNA expression under co-treatment ([4]; co-treatment with TNFα): prevents TGFB2 induction

COc1ccc(CCc2nc3cc(-c4c(C)noc4C)ccc3n2C[C@H](C)N2CCOCC2)cc1Cl [SGC-CBP30]
cell toxicity (Scleroderma cells): minimal cell toxicity
TGFβ3 mRNA expression (TGFβ3 mRNA expression): not TGFβ1 or TGFβ3
P300 occupancy of the TGFB2 enhancer under treatment ([2]; SSc fibroblasts, 72 hours): suppressed
P300 occupancy at the TGFB2 enhancer after drug removal [2, 6]: re-establish high P300 occupancy; also recorded: rebounded to steady-state levels
TGFβ2 mRNA expression in SSc fibroblasts after drug removal [4]: rebounded to steady-state levels
TGFβ2 mRNA expression in SSc fibroblasts under treatment [4]: normalized TGFβ2 expression in SSc fibroblasts to levels comparable to that of controls; also recorded: suppressed; also recorded: decrease TGFβ2 expression in Scleroderma cells to levels comparable to that of control
TGFβ2 mRNA expression in SSc fibroblasts under treatment ([4]; listed as SGC-CBP300): specifically decrease
TGFβ2 mRNA level in SSc cells compared to control after drug removal ([4]; after 72 hours of treatment and drug removal): 3 fold
TGFβ1 mRNA expression (TGFβ1 mRNA expression): not TGFβ1 or TGFβ3

TNFα
TGFβ2 mRNA expression upon stimulation with cytokine/ligand [4]: increased TGFβ2 expression; also recorded: induces TGFB2 mRNA expression

Cc1c2oc3c(C)ccc(C(=O)N[C@@H]4C(=O)N[C@H](C(C)C)C(=O)N5CCC[C@H]5C(=O)N(C)CC(=O)N(C)[C@@H](C(C)C)C(=O)O[C@@H]4C)c3nc-2c(C(=O)N[C@@H]2C(=O)N[C@H](C(C)C)C(=O)N3CCC[C@H]3C(=O)N(C)CC(=O)N(C)[C@@H](C(C)C)C(=O)O[C@@H]2C)c(N)c1=O [actinomycin D] (I: T[dV]P[Sar][NMeV] / II: T[dV]P[Sar][NMeV]; ester I:1-I:C, II:1-II:C; linker I:N-II:N via Actinocin(9to1))
TGFβ3 mRNA expression (TGFβ3 mRNA expression): did not significantly alter
TGFβ2 mRNA expression in SSc fibroblasts under treatment [4]: completely normalized
TGFβ1 mRNA expression (TGFβ1 mRNA expression): did not significantly alter

B1: TGFβ2 ligand: exogenous TGFβ2 ligand (10 ng/mL) (protein, UniProt P61812 303-414, looked up)
Transforming growth factor …: ALDAAYCFRNVQDNCCLRPLYIDFKRDLGWKWIHEPKGYNANFCAGACPYLWSSDTQHSRVLSLYNTINPEASASPCCVSQDLEPLTILYYIGKTPKIEQLSNMIVKSCKCS
TGFβ2 mRNA expression upon stimulation with cytokine/ligand [4]: pronounced further increase in TGFβ2 mRNA
